The results in this text go back to patent US20210177542A1, “POWDER FOR CLEANING AN INTERNAL BODY PART AND/OR AN IMPLANT, METHOD FOR PRODUCING SAID TYPE OF POWDER AND SUITABLE USES” (FERTON HOLDING S.A., priority 2017, published 2021).

What all share (type): physicochemical
Data set [1] in a line: Solubility in water at 20° C. Conditions: for Solubility in water: Table 2; for solubility: water, Table 1. The text has this:
In this disclosure, substances are classified as water-soluble if more than 1 g of powder can be added per liter. […] The preferred powders have the following properties: […]

Data set [2] is described as follows: Hygroscopicity (moisture absorption) of the powder types. The note with it: sensitivity to moisture during sterilizing. An excerpt:
The powders of present disclosure are hygroscopic. According to a preferred embodiment, amorphous silica (silicon dioxide) is therefore added to the powders, especially in a volume ratio of 0.1 to 2.5%. This can reduce or even completely prevent absorption of moisture by the powder during sterilizing. The addition of amorphous silica results in hydrophobic coating for the powder particles, thus counteracting the moisture absorption of the powder particles during the sterilizing process. In less hygroscopic powders, addition of amorphous silica may be reduced or even completely omitted. The following powder types may be classified as hygroscopic: sodium hydrogen carbonate, glycine and erythritol.

The next data set can be described thus: Density of the powder. The note with it: Table 1. The text has this:
In another embodiment of the present disclosure, it is provided for the powder to have a density between 0.2 and 3 g/cm^3, preferably between 0.2 and 2.4 g/ cm^3 and particularly preferably between 0.2 and 1.6 g/ cm^3.

As a reminder, the solubility is the dissolved amount per volume that the medium holds. A higher solubility goes with much dissolved substance.

Structures are written as SMILES. Converted amounts (≈) assume the structure as drawn.

As for `OC[C@H]1O[C@H](O[C@H]2O[C@H](CO)[C@@H](O)[C@H](O)[C@H]2O)[C@H](O)[C@@H](O)[C@@H]1O` [Trehalose, trehalose], in data set [1], the Solubility in water came out at 690 g/1 and the concentration in solution (solubility) was 690 mg/mL (≈ 2020 mM). Also, in data set [2], the Classification as hygroscopic result is on record as “slightly less sensitive”. The Density in the data set “Density of the powder” stood at 1.80 g/mL.
Consider `NCC(=O)O` [Glycine, glycine], for which the Classification as hygroscopic result in data set [2] was “hygroscopic”. Also, the Density in the data set “Density of the powder” was 1.61 g/mL.
`OC[C@@H](O)[C@@H](O)CO` [Erythritol, erythritol]: in data set [1], the Solubility in water was 540 g/1 and the solubility is 540 mg/mL (≈ 4420 mM). In data set [2], the Classification as hygroscopic entry is given as “hygroscopic”. In addition, the Density in “Density of the powder” came to 1.45 g/mL.
Regarding `O=C([O-])O.[Na+]` [Sodium bicarbonate, sodium bicarbonate], in data set [2], the Classification as hygroscopic entry is reported as “hygroscopic”. The Density in the data set “Density of the powder” is 2.54 g/mL.
